Measurements from patent US20250206776A1, “ENZYME-INSTRUCTED SELF-ASSEMBLY OF PEPTIDES CONTAINING N-TERMINAL PHOSPHO-AROMATIC CAPPING MOTIF, AND USES THEREOF” (BRANDEIS UNIVERSITY, priority 2021, published 2025).
Each block holds one compound with its values, some of them ahead of it.

Tests used:
SJSA1 cells = experiment: MTT assay, SJSA1 cells; format: cell-based, human; conditions: SJSA1, 2 h, presence or absence of DQB (20 μM)
Protocol: (§1) Cell Culture: Saos2, SJSA1 and HepG2 cells were purchased from American Type Culture Collection (ATCC, USA). Saos2 cells were cultured in McCoy's 5A Medium (Gibco, Life Technologies) supplemented with 15% (v/v) fetal bovine serum (FBS) (Gibco, Life Technologies), 100 U/mL penicillin and 100 µg/mL streptomycin (Gibco, Life Technologies); SJSA1 cell were culture in RPMI1640 (ATCC, USA) Medium supplemented with 10% (v/v) FBS, 100 U/mL penicillin and 100 µg/mL streptomycin; HepG2 cells were cultured in Minimal Essential Medium (MEM) (Gibco, Life Technologies) supplemented with 10% (v/v) FBS, 100 U/mL penicillin and 100 µg/mL streptomycin. All the cells were maintained at 37° C. in a humidified atmosphere of 5% CO2.
MTT Assay: Cells were seeded in 96-well plates at 1×10^4 cells/well for 24 hours to allow attachment. After removing the culture medium, fresh culture medium containing different concentration of the precursors were added. […] 100 μL of SDS-HCl solution was then added to stop the reduction reaction and dissolve the formazan. The absorbance of each well at 595 nm was measured by a DTX880 Multimode Detector. The results were calculated as cell viability percentage relative to untreated cells. The MTT assay was performed in triplet (n=3) and the average value of the three measurements was taken. […]

Saos2 cells = experiment: MTT assay, Saos2 cells; format: cell-based, human; conditions: Saos2, 2 h, presence or absence of DQB (20 μM)
Protocol: as §1
MTT Assay: Cells were seeded in 96-well plates at 1×10^4 cells/well for 24 hours to allow attachment. After removing the culture medium, fresh culture medium containing different concentration of the precursors were added. After 24/48/72 hours, 10 μL MTT (ACROS Organics) solution (5 mg/mL) was added to each well to incubate at 37° C. for 4 h. 100 μL of SDS-HCl solution was then added to stop the reduction reaction and dissolve the formazan. The absorbance of each well at 595 nm was measured by a DTX880 Multimode Detector. The results were calculated as cell viability percentage relative to untreated cells. […]

[1] = hydrophobicity of the aromatic group; cited from earlier work
[2] = Solubility in PBS buffer / water; format: physicochemical; conditions: compared with 6

Compound: COC(=O)CC[C@@H](NC(=O)[C@@H](Cc1ccccc1)NC(=O)[C@@H](Cc1ccccc1)NC(=O)c1ccc(-c2ccc(OP(=O)(O)O)cc2)cc1)C(=O)OC [9P]
cytotoxicity compared to 10P (cell viability) (SJSA1 cells): higher cytotoxicity
cytotoxicity compared to 10P (cell viability) (Saos2 cells): higher cytotoxicity

Compound: c1ccc(-c2ccccc2)cc1 [biphenyl]
log P [1]: 3.71

relative water solubility [2]: more water soluble than 6
Compound: O=C(N[C@H](Cc1ccccc1)C(=O)N[C@H](Cc1ccccc1)C(=O)O)c1ccc(O)cc1 [compound 2, B-ff]

relative water solubility [2]: more water soluble than 6
Compound: O=C(N[C@H](Cc1ccccc1)C(=O)N[C@H](Cc1ccccc1)C(=O)O)c1ccc2cc(O)ccc2c1 [compound 4, NP-ff]
